Measurements reported in US12150933B2, “IL-8 inihibitors for use in the treatment of some urological disorders” (DOMPÉ FARMACEUTICI S.P.A., priority 2015, dated 2024).
“Also recorded” adds a separate entry of the source.

Tests used:
[1] = test system: CYP-induced cystitis; test: Microscopic examination of urinary bladders after chronic preventive administration; format: in vivo, rat; conditions: 12 hours before and twice per day from first day of CYP for 7 days
Source text: At the end of the study, the urinary bladders were opened, placed in 10% buffered formalin and stored at room temperature until completion of hystomorphological analysis (see Example 6 below).
At the end of the efficacy study of chronic preventive administration, the urinary bladders were opened, placed in 10% buffered formalin and stored at room temperature until hystomorphological analysis.
Treatment with Compd. […] 1.

[2] = test system: CYP-induced visceral pain; test: Chronic administration in CYP-induced visceral pain in rats (Von Frey withdrawal threshold); format: in vivo, rat
Protocol: Cyclophosphamide, 75 mg/kg i.p. for 3 times, every 3rd day, was dissolved in distilled water and administered to animals by i.p. route (volume 5 mL/kg). Appropriate weight of Compd. 1 or Compd. 2 was dissolved in saline, all doses of test compounds were administered by oral gavage (volume 2 mL/kg).
On the day of the experiment, each rat was placed individually in a clear plastic testing box with a grid floor and allowed to acclimatize for at least 10 min. Visceral sensitivity in response to mechanical stimuli was determined using Von Frey monofilaments (1-2-4-8-15-26-60-100 g) applied in the lower abdominal area (close to the urinary bladder) and on both hind paws plantar surface (to evaluate referred pain).
Each Von Frey monofilament was applied 5 times at the level of abdomen and 3 times at the level of each paw, in an ascending order of strength at interval of 5 sec. A stimulus-induced response was considered positive when the paw was sharply withdrawn, paw licking occurred, or the animal flinched upon removal of the filament.
• before CYP administration (in order to acquire basal values) • after CYP administration and before treatment, to verify the pathology (in order to acquire pre-treatment values) • after chronic treatment, about 18 hours after last administration of Compd. 1 (in order to acquire post-treatment values). • after chronic treatment, 2 hours after the last administration of Compd. 1 (in order to acquire post-treatment values after chronic+acute administration)
Compd. 1 or vehicle was administered p.o. to animals twice daily (according to the pharmacokinetic profile of the compound) for 6 days, starting from 24 hours after last treatment with CYP, when painful symptoms were well established. Nociceptive hypersensitivity was evaluated about 18 hours after the last administration of Compd. 1 (or vehicle) in order to evaluate the effect of chronic administration, or a further dosage of compound was administered and evaluation carried out 2 hours thereafter, in order to compare with acute protocol, described in Example 1.

[3] = test system: CYP-induced cystitis; test: Follow-up up to 10 days after discontinuation of treatment (body weight, survival); format: in vivo
[4] = test system: CYP-induced visceral pain; test: Chronic preventive treatment in CYP-induced visceral pain model in rats; comparison with Mesna; format: in vivo, rat; conditions: 7 mg/kg twice daily p.o. for 7 days
Protocol: The effect of chronic preventive administration of Compd. 1 in a visceral pain model induced by repeated administration of cyclophosphamide (CYP) in conscious rats was evaluated.
The oral dose of 7 mg/kg of Compd. 1 was chosen on the basis of previous evaluations. Compd. 1 or vehicle was orally administered to animals twice daily (according to the PK profile of the molecule) for 7 days. Mesna_or vehicle was intraperitoneally administered several times a day for 3 days (when CYP was administered).
Repeated treatment with CYP (75 mg/kg i.p. for 3 times, every 3rd day), induced a strong decrease in withdrawal thresholds to noxious stimulus measured at the level of low abdomen and hind-paws. Nociceptive hypersensitivity was evaluated. In the control group, nociceptive thresholds of abdomen and hind-paws were not altered after the treatment with vehicle.
Behavioral testing was performed at 4 different times: • before CYP administration (in order to acquire basal values) • after CYP administration and before treatment with the tested compound, to verify the pathology (in order to acquire pre-treatment values) • after treatment, 42 or 48 hours from the last administration of Compd. 1 or Mesna.

[5] = Pharmacokinetic profile after oral administration; format: in vivo
[6] = 7 mg/kg twice daily p.o. for 6 days, about 18 hours after last administration

SMILES: C[C@H](C(=O)O)c1ccc(Nc2nc(C(F)(F)F)cs2)cc1 [Compd. 1, (2S)-2-(4-{[4-(trifluoromethyl)-1,3-thiazol-2-yl]amino}phenyl) propanoic acid]
- inflammatory, degenerative, proliferative and hemorrhagic lesions caused by CYP [1]: clearly reduced the inflammatory, degenerative, proliferative and hemorrhagic lesions caused by CYP
- painful visceral symptoms in both evaluated areas ([2]; 7 mg/kg twice daily p.o. for 6 days plus one further dose, 2 hours following the last administration): fully abolished the painful visceral symptoms in both evaluated areas
- nociceptive hypersensitivity in hind-paws plantar surface [2, 6]: completely reverses the nociceptive hypersensitivity in hind-paws plantar surface
- withdrawal thresholds in the abdomen [2, 6]: almost complete recovery of withdrawal thresholds in the abdomen; also recorded: almost complete increase in withdrawal thresholds in the abdomen
- survival ([3]; vehicle-treated 50%): 65%
- body weight recovery ([3]; versus vehicle-treated animals): body weight recovery faster than vehicle-treated animals
- nociceptive hypersensitivity in hind-paws plantar surface [4]: completely reversed the nociceptive hypersensitivity in hind-paws plantar surface
- withdrawal thresholds in the abdomen [4]: almost complete recovery of withdrawal thresholds in the abdomen
- distribution in the tissues ([5]; in vivo): poorly distributed in the tissues
- elimination from plasma ([5]; in vivo): gradually eliminated from plasma
- oral bioavailability ([5]; in vivo, po): excellent oral bioavailability
- absorption ([5]; oral route): rapid absorption; also recorded: well absorbed by the oral route
- time of maximum concentration in plasma after administration ([5]; plasma): 2 h
- Cmax ([5]; plasma, oral, read-out: maximum concentration (Cmax) in plasma): 47400 ± 25400 ng/mL
